# Experimental data as given in patent US10030047B2 (Hoffmann-La Roche Inc., priority 2015, dated 2018).
# Test system: A. baumannii strain ATCC19606
# Assay: Minimum inhibitory concentration (MIC) determination, microbroth dilution (CLSI)
# Type: cell-based
# Settings: Acinetobacter baumannii; A. baumannii ATCC19606; CAMHB; read after 20 hours; >=80% growth inhibition; read-out: ATCC19606 MIC
# Method in brief: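 CLSI broth microdilution in cation-adjusted Mueller Hinton broth with twofold compound dilutions and ~5×10^5 CFU/ml inoculum, incubated at 35±2 °C. MIC read after 20 h as lowest concentration inhibiting ≥80% of growth, by eye and OD 600 nm.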
row,MIC [µg/mL],Compound
1,0.12,"CN1C(=O)[C@H](CCCCN)NC(=O)[C@H](CCCN)NCc2cccnc2Sc2c(Cl)cc(Br)cc2CNC(=O)[C@@H]1Cc1c[nH]c2ccccc12 [Example 89, (11S,14S,17S)-14-(4-Amino-butyl)-11-(3-amino-propyl)-23-bromo-25-chloro-17-(1H-indol-3-ylmethyl)-16-methyl-2-thia-4,10,13,16,19-pentaaza-tricyclo[19.4.0.0*3,8*]pentacosa-1(25),3,5,7,21,23-hexaene-12,15,18-trione]"
2,0.25,"CN1C(=O)[C@H](CCCCN)NC(=O)[C@H](CCCN)NCc2cccnc2Sc2c(Cl)ccc(Br)c2CNC(=O)[C@@H]1Cc1c[nH]c2ccccc12 [Example 90, (11S,14S,17S)-14-(4-Amino-butyl)-11-(3-amino-propyl)-22-bromo-25-chloro-17-(1H-indol-3-ylmethyl)-16-methyl-2-thia-4,10,13,16,19-pentaaza-tricyclo[19.4.0.0*3,8*]pentacosa-1(25),3,5,7,21,23-hexaene-12,15,18-trione]"
3,0.5,"CN1C(=O)[C@H](CCCCN)NC(=O)[C@H](CCCN)NCc2cccnc2Sc2c(cc(C(F)(F)F)cc2C(F)(F)F)CNC(=O)[C@@H]1Cc1c[nH]c2ccccc12 [Example 91, (11S,14S,17S)-14-(4-Amino-butyl)-11-(3-amino-propyl)-17-(1H-indol-3-ylmethyl)-16-methyl-23,25-bis-trifluoromethyl-2-thia-4,10,13,16,19-pentaaza-tricyclo[19.4.0.0*3,8*]pentacosa-1(25),3,5,7,21,23-hexaene-12,15,18-trione]"
4,0.5,"CN1C(=O)[C@H](CCCCN)NC(=O)[C@H](CCCN)NCc2cccnc2Sc2c(Cl)cc(N3CCOCC3)cc2CNC(=O)[C@@H]1Cc1c[nH]c2ccccc12 [Example 92, (11S,14S,17S)-14-(4-Amino-butyl)-11-(3-amino-propyl)-25-chloro-17-(1H-indol-3-ylmethyl)-16-methyl-23-morpholin-4-yl-2-thia-4,10,13,16,19-pentaaza-tricyclo[19.4.0.0*3,8*]pentacosa-1(25),3,5,7,21,23-hexaene-12,15,18-trione]"
5,16,"CN1C(=O)[C@H](CCCCN)NC(=O)CNCc2cccnc2Sc2c(Cl)cc(Cl)cc2CNC(=O)[C@@H]1Cc1c[nH]c2ccccc12 [Example 93, (14S,17S)-14-(4-Amino-butyl)-23,25-dichloro-17-(1H-indol-3-ylmethyl)-16-methyl-2-thia-4,10,13,16,19-pentaaza-tricyclo[19.4.0.0*3,8*]pentacosa-1(25),3,5,7,21,23-hexaene-12,15,18-trione]"
6,1,"C[C@@H]1NCc2cccnc2Sc2c(Cl)cc(Cl)cc2CNC(=O)[C@H](Cc2c[nH]c3ccccc23)N(C)C(=O)[C@H](CCCCN)NC1=O [Example 94, (11S,14S,17S)-14-(4-Amino-butyl)-23,25-dichloro-17-(1H-indol-3-ylmethyl)-11,16-dimethyl-2-thia-4,10,13,16,19-pentaaza-tricyclo[19.4.0.0*3,8*]pentacosa-1(25),3,5,7,21,23-hexaene-12,15,18-trione]"
7,8,"CC(C)[C@@H]1NCc2cccnc2Sc2c(Cl)cc(Cl)cc2CNC(=O)[C@H](Cc2c[nH]c3ccccc23)N(C)C(=O)[C@H](CCCCN)NC1=O [Example 95, (11S,14S,17S)-14-(4-Amino-butyl)-23,25-dichloro-17-(1H-indol-3-ylmethyl)-11-isopropyl-16-methyl-2-thia-4,10,13,16,19-pentaaza-tricyclo[19.4.0.0*3,8*]pentacosa-1(25),3,5,7,21,23-hexaene-12,15,18-trione]"
8,4,"CN1C(=O)[C@H](CCCCN)NC(=O)[C@H](CO)NCc2cccnc2Sc2c(Cl)cc(Cl)cc2CNC(=O)[C@@H]1Cc1c[nH]c2ccccc12 [Example 96, (11S,14S,17S)-14-(4-Amino-butyl)-23,25-dichloro-11-hydroxymethyl-17-(1H-indol-3-ylmethyl)-16-methyl-2-thia-4,10,13,16,19-pentaaza-tricyclo[19.4.0.0*3,8*]pentacosa-1(25),3,5,7,21,23-hexaene-12,15,18-trione]"
9,0.12,"CN1C(=O)[C@H](CCCCN)NC(=O)[C@H](CCCN)NCc2nccnc2Sc2c(Cl)cc(C(F)(F)F)cc2CNC(=O)[C@@H]1Cc1c[nH]c2ccccc12 [Example 97, (11S,14S,17S)-14-(4-Amino-butyl)-11-(3-amino-propyl)-25-chloro-17-(1H-indol-3-ylmethyl)-16-methyl-23-trifluoromethyl-2-thia-4,7,10,13,16,19-hexaaza-tricyclo[19.4.0.0*3,8*]pentacosa-1(21),3,5,7,22,24-hexaene-12,15,18-trione]"
10,0.12,"CN1C(=O)[C@H](CCCCN)NC(=O)[C@H](CCCN)NCc2nccnc2Sc2c(Cl)ccc(C(F)(F)F)c2CNC(=O)[C@@H]1Cc1c[nH]c2ccccc12 [Example 98, (11S,14S,17S)-14-(4-Amino-butyl)-11-(3-amino-propyl)-25-chloro-17-(1H-indol-3-ylmethyl)-16-methyl-22-trifluoromethyl-2-thia-4,7,10,13,16,19-hexaaza-tricyclo[19.4.0.0*3,8*]pentacosa-1(21),3,5,7,22,24-hexaene-12,15,18-trione]"
11,4,"CN1C(=O)[C@H](CCCCN)NC(=O)[C@H](CCCN)NCc2cccnc2Sc2c(Cl)cc(-c3cccnc3)cc2CNC(=O)[C@@H]1Cc1c[nH]c2ccccc12 [Example 99, (11S,14S,17S)-14-(4-Amino-butyl)-11-(3-amino-propyl)-25-chloro-17-(1H-indol-3-ylmethyl)-16-methyl-23-pyridin-3-yl-2-thia-4,10,13,16,19-pentaaza-tricyclo[19.4.0.0*3,8*]pentacosa-1(25),3,5,7,21,23-hexaene-12,15,18-trione]"
12,2,"CN1C(=O)[C@H](CCCCN)NC(=O)[C@H](CCCN)NCc2cccnc2Sc2c(Cl)cc(-c3ccncc3)cc2CNC(=O)[C@@H]1Cc1c[nH]c2ccccc12 [Example 100, (11S,14S,17S)-14-(4-Amino-butyl)-11-(3-amino-propyl)-25-chloro-17-(1H-indol-3-ylmethyl)-16-methyl-23-pyridin-4-yl-2-thia-4,10,13,16,19-pentaaza-tricyclo[19.4.0.0*3,8*]pentacosa-1(25),3,5,7,21,23-hexaene-12,15,18-trione]"
13,32,"CC(C)C[C@@H]1NCc2cccnc2Sc2c(Cl)cc(Cl)cc2CNC(=O)[C@H](Cc2c[nH]c3ccccc23)N(C)C(=O)[C@H](CCCCN)NC1=O [Example 101, (11S,14S,17S)-14-(4-Amino-butyl)-23,25-dichloro-17-(1H-indol-3-ylmethyl)-11-isobutyl-16-methyl-2-thia-4,10,13,16,19-pentaaza-tricyclo[19.4.0.0*3,8*]pentacosa-1(25),3,5,7,21,23-hexaene-12,15,18-trione]"
14,0.5,"COc1cc(-c2cc(Cl)c3c(c2)CNC(=O)[C@H](Cc2c[nH]c4ccccc24)N(C)C(=O)[C@H](CCCCN)NC(=O)[C@H](CCCN)NCc2cccnc2S3)ccn1 [Example 102, (11S,14S,17S)-14-(4-Amino-butyl)-11-(3-amino-propyl)-25-chloro-17-(1H-indol-3-ylmethyl)-23-(2-methoxy-pyridin-4-yl)-16-methyl-2-thia-4,10,13,16,19-pentaaza-tricyclo[19.4.0.0*3,8*]pentacosa-1(25),3,5,7,21,23-hexaene-12,15,18-trione]"
15,0.25,"CN1C(=O)[C@H](CCCCN)NC(=O)[C@H](CCC(N)=O)NCc2cccnc2Sc2c(Cl)cc(Cl)cc2CNC(=O)[C@@H]1Cc1c[nH]c2ccccc12 [Example 103, 3-[(11S,14S,17S)-14-(4-Amino-butyl)-23,25-dichloro-17-(1H-indol-3-ylmethyl)-16-methyl-12,15,18-trioxo-2-thia-4,10,13,16,19-pentaaza-tricyclo[19.4.0.0*3,8*]pentacosa-1(25),3,5,7,21,23-hexaen-11-yl]-propionamide]"
16,2,"CN1C(=O)[C@H](CCCCN)NC(=O)[C@H](CCCN)NCc2ncccc2Sc2c(Cl)ccc(Cl)c2CNC(=O)[C@@H]1Cc1c[nH]c2ccccc12 [Example 104, (11S,14S,17S)-14-(4-Amino-butyl)-11-(3-amino-propyl)-22,25-dichloro-17-(1H-indol-3-ylmethyl)-16-methyl-2-thia-7,10,13,16,19-pentaaza-tricyclo[19.4.0.0*3,8*]pentacosa-1(21),3,5,7,22,24-hexaene-12,15,18-trione]"
17,1,"Cc1cc(-c2cc(Cl)c3c(c2)CNC(=O)[C@H](Cc2c[nH]c4ccccc24)N(C)C(=O)[C@H](CCCCN)NC(=O)[C@H](CCCN)NCc2cccnc2S3)ccn1 [Example 105, (11S,14S,17S)-14-(4-Amino-butyl)-11-(3-amino-propyl)-25-chloro-17-(1H-indol-3-ylmethyl)-16-methyl-23-(2-methyl-pyridin-4-yl)-2-thia-4,10,13,16,19-pentaaza-tricyclo[19.4.0.0*3,8*]pentacosa-1(25),3,5,7,21,23-hexaene-12,15,18-trione]"
18,2,"C[C@H](O)[C@@H]1NCc2cccnc2Sc2c(Cl)cc(Cl)cc2CNC(=O)[C@H](Cc2c[nH]c3ccccc23)N(C)C(=O)[C@H](CCCCN)NC1=O [Example 106, (11S,14S,17S)-14-(4-Amino-butyl)-23,25-dichloro-11-((S)-1-hydroxy-ethyl)-17-(1H-indol-3-ylmethyl)-16-methyl-2-thia-4,10,13,16,19-pentaaza-tricyclo[19.4.0.0*3,8*]pentacosa-1(25),3,5,7,21,23-hexaene-12,15,18-trione]"
19,8,"CN1C(=O)[C@H](CCCCN)NC(=O)C(C)(C)NCc2cccnc2Sc2c(Cl)cc(Cl)cc2CNC(=O)[C@@H]1Cc1c[nH]c2ccccc12 [Example 107, (14S,17S)-14-(4-Amino-butyl)-23,25-dichloro-17-(1H-indol-3-ylmethyl)-11,11,16-trimethyl-2-thia-4,10,13,16,19-pentaaza-tricyclo[19.4.0.0*3,8*]pentacosa-1(25),3,5,7,21,23-hexaene-12,15,18-trione]"
